Where two headings read alike, the source gives them in different places.
Tests used:
[1] = Metabolic stability in microsomes, rat; assay type: in vitro ADME; conditions: for Metabolic stability, microsomes, Rat: 30 min
Protocol: Metabolic stability of the compounds was evaluated in rat liver microsomes (RLM). Microsomes (0.5 mg/ml) and test compound (1 μM) in 100 mM potassium phosphate buffer (pH 7.4) were preincubated by shaking at 37° C. for 5 min (100 rpm). Metabolic reactions were initiated by adding an NADPH production system (60 mM potassium phosphate buffer at pH 7.4, 1.3 mM NADP, 3.3 mM glucose-6-phosphate, 0.3 μL glucose-6-phosphate dehydrogenase (0.4 U/mL), and 3.3 mM magnesium chloride) and incubating at 37° C. 100 μL aliquots were recovered at 0, 10, 20, 30 and 60 minutes, and the reaction was terminated by the addition of two volumes of ice-cold acetonitrile (ACN). After mixing by vortex and centrifugation (14000 rpm) for 15 minutes at 4° C., the supernatant was transferred to liquid chromatography vials and analyzed by an LC-MS/MS system.

[2] = Metabolic stability in microsomes, mouse; assay type: in vitro ADME; conditions: 30 min
[3] = Plasma protein binding by rapid equilibrium dialysis, human; assay type: in vitro ADME; conditions: plasma (50% in PBS)
Protocol: Plasma protein binding was measured by rapid equilibrium dialysis (RED). A DMSO stock solution of the compounds was prepared at a concentration of 10 mM and diluted to a concentration of […] with 50% plasma in phosphate buffered saline (PBS, pH 7.4). Plasma samples (100 μL) and PBS (300 μL) were added to the sample chamber and the buffer chamber, respectively, after which the RED device was turn on and the samples were incubated in a shaking incubator at 37° C. for 4 hours. After dialysis, 50 μl aliquots were collected from each side of the chamber. 50 μl of blank plasma was added to the buffer sample, and 50 μl of PBS was also added to the plasma sample. 200 μL of acetonitrile containing an internal standard was added to each sample. The samples were centrifuged at 3200 g for 20 minutes at 4° C., and the supernatants were obtained and analyzed by an LC-MS/MS system. The plasma protein binding rate was calculated as follows: Free form (%)=(Buffer chamber/Plasma chamber)×100 Bound form (%)=100−Free form (%).

[4] = biological target: T1, CYP2C9 (Homo sapiens, UniProt P11712); assay: CYP inhibition assay (Vivid fluorometric), 2C9; assay type: biochemical; conditions: human, recombinant human CYP2C9, pH 8; 1 μM in Table 5; read-out: CYP450 inhibition, 2C9 isozyme
T1 construct: purchased Invitrogen
Protocol: CYP450 (1A2, 2C9, 3A4) enzyme assay was performed by a fluorometric assay using a Vivid® CYP450 screening kit (Invitrogen, USA, CA) in a 96-well black plate according to manufacturer's instructions with some modifications. The assay was performed at room temperature, and the final assay volume was 100 μL. […]
A master pre-mixture (enzyme (0.5 nmol recombinant human CYP450 enzyme)/NADP regeneration solution (333 mM glucose-6-phosphate dissolved, 30 U/mL glucose-6-phosphate dehydrogenase in 100 mM KH2PO4 solution at pH 8.0)) was prepared as a CYP450 reaction buffer (200 mM KH2PO4, pH 8.0). The master pre-mixture was added to each well of the 96 well plate, followed by the vehicle DMSO (control) and test compounds, and the mixture was preincubated for 10 minutes in the plate for background reading. Subsequently, the enzyme reaction was immediately initiated through the addition of CYP450 substrate/NADP^+ mixture. After incubation for 40 minutes, the fluorescence of the product was measured with a CHAMELEON™ multi-technology plate reader (2C9, 3A4: excitation wavelength of 530 nm and emission wavelength of 590 nm, 1A2: excitation wavelength of 415 nm and emission wavelength of 460 nm). The effect of the test compounds on CYP450 (1A2, 2C9, 3A4) was expressed as the percentage of enzyme activity.

[5] = Plasma and brain concentrations after intravenous administration of Compound 28 in rats; assay type: in vivo, SD rats; conditions: for concentration in the brain tissue: 0.5 hour after intravenous administration of Compound 28; for Kp / concentration at 0.5 h / concentration at 2 h / concentration at 4 h / concentration at 8 h / Kp at 0.5 h / Kp at 2 h / Kp at 4 h / Kp at 8 h: male, rat, iv; for Kp: SD, 5 mg/kg, after i.v. Compound 28, over the time points of Table 6, read-out: brain to plasma ratio; for Kp / Kp at 0.5 h / Kp at 2 h / Kp at 4 h / Kp at 8 h: brain/plasma; for concentration at 0.5 h / Kp at 0.5 h: 0.5 hr after i.v. Compound 28 5 mg/kg; for concentration at 0.5 h / concentration at 2 h / concentration at 4 h / concentration at 8 h / Kp at 0.5 h / Kp at 2 h / Kp at 4 h / Kp at 8 h: rats, mean±SD; for concentration at 2 h / Kp at 2 h: 2 hr after i.v. Compound 28 5 mg/kg; for concentration at 4 h / Kp at 4 h: 4 hr after i.v. Compound 28 5 mg/kg; for concentration at 8 h / Kp at 8 h: 8 hr after i.v. Compound 28 5 mg/kg; for Kp at 0.5 h / Kp at 2 h / Kp at 4 h / Kp at 8 h: read-out: Brain to plasma ratio
Protocol: 7 to 8-weeks old male SD rats (weight of 250 to 290 g) were purchased from SAMTACO (Osan, […], South Korea) and given commercial rat feed (SAMTACO, Osan, Kyungki-Do, South Korea) and water to be consumed freely. 3 rats were housed per each cage at a temperature of 23±2° C. and a relative humidity of 50 to 60% under light-darkness cycles of 12±12 hours. The rats were allowed to acclimate to these conditions for at least one week before the experiments was carried out. The rats were fasted for 12 hours before the experiment and given the tap water to be consumed freely. Compound 28 was administered to the caudal vein at a dose of 5 mg/kg. At 0.5, 2, 4 and 8 hours after intravenous administration, each animal was sacrificed by cervical dislocation. Blood samples were centrifuged at 12,000 rpm for 5 minutes and immediately stored at […] until analysis. After collecting the blood samples, the brains were harvested. Then, the brain tissues were accurately weighed and homogenized with 4-fold volumes of distilled water (IKA T10 basic homogenizer, IKA, Staufen, Germany). The homogenized brain samples were centrifuged at 12,000 rpm for 10 minutes and stored at −20° C. until analysis of 500 μl aliquots. Quantification of the samples was performed using an LC-MS/MS system. The HPLC system is composed of an Agilent 1290 series rapid resolution LC system that includes a binary pump (model: G4220A), an autosampler (model: G4226A) and a column oven (model: G1316C). Mass spectrometer analysis was performed using a Sciex 4000 Q-Trap® mass spectrometer (Applied Biosystems Sciex, Toronto, Ontario, Canada) equipped with an electrospray ionization source. Data acquisition and quantification were performed using the Analyst software version 1.6 from AB SCIEX, and chromatographic separations were performed using Gemini NX C18 (2.0×100 mm, 3 μm, Phenomenex, USA). The mobile phase consisted of ACN (0.1% formic acid) and water (0.1% formic acid) (50:50, v/v). The flow rate was 0.25 mL/min, and the injection volume was set at 5 μL. Mass spectrometry was optimized and performed using a multiple reaction monitoring (MRM) scan in cation mode. The m/z transition was set from 392.1 to 360.2 for Compound 28 and from 378.2 to 360.2 for Compound 29. Preparation of plasma and brain homogenous samples includes protein precipitation with acetonitrile. In 1.5 mL polyethylene microtubes, 5 μL of IS (cimetidine, 10 μg/ml) was added to 50 μL of plasma or tissue homogenate. Subsequently, 150 μl of acetonitrile (extraction solvent) was added to the tube. After vortexing for 30 seconds, the mixture was centrifuged for 5 minutes at 12,000 rpm. 10 μl of supernatant was injected directly into the HPLC column.

[6] = pH 7.4, human plasma, read-out: Plasma protein binding rate, Human (converted)
[7] = brain, read-out: Brain concentration
[8] = plasma, read-out: Plasma concentration

T1 sequence (P11712 whole entry): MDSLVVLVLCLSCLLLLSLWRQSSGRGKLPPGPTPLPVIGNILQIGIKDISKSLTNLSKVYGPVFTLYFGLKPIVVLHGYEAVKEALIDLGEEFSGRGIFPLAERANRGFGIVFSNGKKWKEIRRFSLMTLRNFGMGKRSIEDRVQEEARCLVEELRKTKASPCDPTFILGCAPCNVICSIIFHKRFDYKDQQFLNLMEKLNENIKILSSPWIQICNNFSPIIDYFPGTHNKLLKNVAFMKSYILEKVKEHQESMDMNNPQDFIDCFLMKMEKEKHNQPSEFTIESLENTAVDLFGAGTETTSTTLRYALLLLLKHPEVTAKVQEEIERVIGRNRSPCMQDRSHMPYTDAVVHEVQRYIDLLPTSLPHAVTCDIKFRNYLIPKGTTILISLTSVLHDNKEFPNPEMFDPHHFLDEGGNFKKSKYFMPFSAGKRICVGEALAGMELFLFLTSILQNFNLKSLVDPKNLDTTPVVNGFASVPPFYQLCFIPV

SMILES	Metabolic stability, microsomes, Rat [1] [% remaining after 30 min]	Metabolic stability, microsomes, Mouse [2] [% remaining after 30 min]	fraction unbound at 4 h, 5 µM [3, 6]	inhibition at 40 min, 1 µM [4] [%]	concentration in the brain tissue [5] [μg/g tissue]	Kp [5]	concentration at 0.5 h [5, 7] [ng/g]	concentration at 2 h [5, 7] [ng/g]	concentration at 4 h [5, 7] [ng/g]	concentration at 8 h [5, 7] [ng/g]	Kp at 0.5 h [5]	Kp at 2 h [5]	Kp at 4 h [5]	Kp at 8 h [5]	concentration at 0.5 h [5, 8] [ng/mL]	concentration at 2 h [5, 8] [ng/mL]	concentration at 4 h [5, 8] [ng/mL]	concentration at 8 h [5, 8] [ng/mL]	further results
CCCc1nc(Cc2cccc(Oc3ccccc3)c2)c(C)c(C(=O)O)c1O [Compound 29, 3-Hydroxy-5-methyl-6-(3-phenoxybenzyl)-2-propylisonicotinic acid]	0	2	0.001 ± 6.01e-07	26 ± 2	0.022	< 0.25	22 ± 3	2 ± 1	1	1 ± 1	0.24 ± 0.13	0.08 ± 0.02	0.05 ± 0.03	0.1 ± 0.12	110 ± 50	30	20 ± 10	10	metabolic stability ([1]; after 30 minutes, species not given): < 5%; fraction unbound at 4 h, 5 µM ([3]; pH 7.4, species not given, read-out: plasma protein binding): < 0.01
CCCc1nc(Cc2cccc(Oc3ccccc3)c2)c(C)c(C(=O)OC)c1O [Compound 28, Methyl 3-hydroxy-5-methyl-6-(3-phenoxybenzyl)-2-propylisonicotinate]	33	35	0.005	28 ± 3	1.11	1.13 to 1.79	1110 ± 360	90 ± 10	50 ± 10	30 ± 10	1.79 ± 0.44	1.13 ± 0.25	0.94 ± 0.21	1.19 ± 0.41	620 ± 140	80 ± 20	60 ± 10	20 ± 10	brain concentration of Compound 28 relative to Compound 29 ([5]; 0.5 hour after i.v. Compound 28): 50 times
